Data from PubChem BioAssay AID1845212 (Molecular Pharmacology Branch, DTP, NCI, 2023).
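Further: spheroids exposed to compounds for seven days; percent viability relative to DMSO vehicle control as 100%.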

The compounds below were run on NCI-H719 tumor spheroids, viability (assay: Anticancer human tumor NCI-H719 cell line growth inhibition). Settings: second compound 31.6 µM; first compound 0.3 µM; active compounds read low; spheroids with HUVEC and MSC.
How it was run: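 Complex spheroids of malignant cells with endothelial cells and mesenchymal stem cells; agents alone or combined, from near clinical Cmax (or 10 microM if unknown) down in half-log steps, 0.25% DMSO final.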
For O=C(c1cc(Cc2n[nH]c(=O)c3ccccc23)ccc1F)N1CCN(C(=O)C2CC2)CC1 + Cn1nnc2c(C(N)=O)ncn2c1=O, the viability, T/C was 53.3%.

Same assay, conditions: second compound 31.6 µM; first compound 0.949 µM; active compounds read low; spheroids with HUVEC and MSC
With CNCc1ccc(-c2cc(-c3nc(-c4ccc(S(=O)(=O)C(C)C)cc4)cnc3N)on2)cc1 + Cn1nnc2c(C(N)=O)ncn2c1=O the viability, T/C was 8.28%. For Cc1sc2c(c1C)C(c1ccc(Cl)cc1)=NC(CC(=O)Nc1ccc(O)cc1)c1nnc(C)n1-2 (stereo not given) + Cn1nnc2c(C(N)=O)ncn2c1=O, the viability, T/C was 3.77%. Cn1ncnc1[C@H]1c2n[nH]c(=O)c3cc(F)cc(c23)N[C@@H]1c1ccc(F)cc1 + Cn1nnc2c(C(N)=O)ncn2c1=O showed a viability, T/C of 7.26%. O=C(c1cc(Cc2n[nH]c(=O)c3ccccc23)ccc1F)N1CCN(C(=O)C2CC2)CC1 + Cn1nnc2c(C(N)=O)ncn2c1=O was tested, and the viability, T/C was 34.1%.

Same assay, conditions: second compound 31.6 µM; first compound 3 µM; active compounds read low; spheroids with HUVEC and MSC
CNCc1ccc(-c2cc(-c3nc(-c4ccc(S(=O)(=O)C(C)C)cc4)cnc3N)on2)cc1 + Cn1nnc2c(C(N)=O)ncn2c1=O gave a viability, T/C of 37.8%. Cc1sc2c(c1C)C(c1ccc(Cl)cc1)=NC(CC(=O)Nc1ccc(O)cc1)c1nnc(C)n1-2 (stereo not given) + Cn1nnc2c(C(N)=O)ncn2c1=O showed a viability, T/C of 2.95%. Cn1ncnc1[C@H]1c2n[nH]c(=O)c3cc(F)cc(c23)N[C@@H]1c1ccc(F)cc1 + Cn1nnc2c(C(N)=O)ncn2c1=O was tested, and the viability, T/C was 9.15%. Work on O=C(c1cc(Cc2n[nH]c(=O)c3ccccc23)ccc1F)N1CCN(C(=O)C2CC2)CC1 + Cn1nnc2c(C(N)=O)ncn2c1=O yielded a viability, T/C of 40.7%.

Same assay, conditions: second compound 31.6 µM; first compound 9.49 µM; active compounds read low; spheroids with HUVEC and MSC
O=C(c1cc(Cc2n[nH]c(=O)c3ccccc23)ccc1F)N1CCN(C(=O)C2CC2)CC1 + Cn1nnc2c(C(N)=O)ncn2c1=O gave a viability, T/C of 42.8%.

Same assay, conditions: second compound 31.6 µM; first compound 30 µM; active compounds read low; spheroids with HUVEC and MSC
O=C(c1cc(Cc2n[nH]c(=O)c3ccccc23)ccc1F)N1CCN(C(=O)C2CC2)CC1 + Cn1nnc2c(C(N)=O)ncn2c1=O showed a viability, T/C of 6.8%.

Same assay, conditions: second compound 100 µM; first compound 0.00949 µM; active compounds read low; spheroids with HUVEC and MSC
CNCc1ccc(-c2cc(-c3nc(-c4ccc(S(=O)(=O)C(C)C)cc4)cnc3N)on2)cc1 + Cn1nnc2c(C(N)=O)ncn2c1=O gave a viability, T/C of 80%. Cc1sc2c(c1C)C(c1ccc(Cl)cc1)=NC(CC(=O)Nc1ccc(O)cc1)c1nnc(C)n1-2 (stereo not given) + Cn1nnc2c(C(N)=O)ncn2c1=O was tested, and the viability, T/C was 88%. For Cn1ncnc1[C@H]1c2n[nH]c(=O)c3cc(F)cc(c23)N[C@@H]1c1ccc(F)cc1 + Cn1nnc2c(C(N)=O)ncn2c1=O, the viability, T/C was 7.03%.

Same assay, conditions: second compound 100 µM; first compound 0.03 µM; active compounds read low; spheroids with HUVEC and MSC
CNCc1ccc(-c2cc(-c3nc(-c4ccc(S(=O)(=O)C(C)C)cc4)cnc3N)on2)cc1 + Cn1nnc2c(C(N)=O)ncn2c1=O showed a viability, T/C of 52.8%. In the case of Cc1sc2c(c1C)C(c1ccc(Cl)cc1)=NC(CC(=O)Nc1ccc(O)cc1)c1nnc(C)n1-2 (stereo not given) + Cn1nnc2c(C(N)=O)ncn2c1=O, the viability, T/C is reported as 65%. Work on Cn1ncnc1[C@H]1c2n[nH]c(=O)c3cc(F)cc(c23)N[C@@H]1c1ccc(F)cc1 + Cn1nnc2c(C(N)=O)ncn2c1=O yielded a viability, T/C of 6.67%.

Same assay, conditions: second compound 100 µM; first compound 0.0949 µM; active compounds read low; spheroids with HUVEC and MSC
CNCc1ccc(-c2cc(-c3nc(-c4ccc(S(=O)(=O)C(C)C)cc4)cnc3N)on2)cc1 + Cn1nnc2c(C(N)=O)ncn2c1=O gave a viability, T/C of 24.4%. In the case of Cc1sc2c(c1C)C(c1ccc(Cl)cc1)=NC(CC(=O)Nc1ccc(O)cc1)c1nnc(C)n1-2 (stereo not given) + Cn1nnc2c(C(N)=O)ncn2c1=O, the viability, T/C is reported as 37%. For Cn1ncnc1[C@H]1c2n[nH]c(=O)c3cc(F)cc(c23)N[C@@H]1c1ccc(F)cc1 + Cn1nnc2c(C(N)=O)ncn2c1=O, the viability, T/C was 6.67%. O=C(c1cc(Cc2n[nH]c(=O)c3ccccc23)ccc1F)N1CCN(C(=O)C2CC2)CC1 + Cn1nnc2c(C(N)=O)ncn2c1=O showed a viability, T/C of 43.5%.

Same assay, conditions: second compound 100 µM; first compound 0.3 µM; active compounds read low; spheroids with HUVEC and MSC
For CNCc1ccc(-c2cc(-c3nc(-c4ccc(S(=O)(=O)C(C)C)cc4)cnc3N)on2)cc1 + Cn1nnc2c(C(N)=O)ncn2c1=O, the viability, T/C was 9.66%. With Cc1sc2c(c1C)C(c1ccc(Cl)cc1)=NC(CC(=O)Nc1ccc(O)cc1)c1nnc(C)n1-2 (stereo not given) + Cn1nnc2c(C(N)=O)ncn2c1=O the viability, T/C was 6.38%. Compound Cn1ncnc1[C@H]1c2n[nH]c(=O)c3cc(F)cc(c23)N[C@@H]1c1ccc(F)cc1 + Cn1nnc2c(C(N)=O)ncn2c1=O has a viability, T/C of 7.34%. Work on O=C(c1cc(Cc2n[nH]c(=O)c3ccccc23)ccc1F)N1CCN(C(=O)C2CC2)CC1 + Cn1nnc2c(C(N)=O)ncn2c1=O yielded a viability, T/C of 21.9%.

Same assay, conditions: second compound 100 µM; first compound 0.949 µM; active compounds read low; spheroids with HUVEC and MSC
CNCc1ccc(-c2cc(-c3nc(-c4ccc(S(=O)(=O)C(C)C)cc4)cnc3N)on2)cc1 + Cn1nnc2c(C(N)=O)ncn2c1=O gave a viability, T/C of 39.1%. Cc1sc2c(c1C)C(c1ccc(Cl)cc1)=NC(CC(=O)Nc1ccc(O)cc1)c1nnc(C)n1-2 (stereo not given) + Cn1nnc2c(C(N)=O)ncn2c1=O gave a viability, T/C of 3.72%. With Cn1ncnc1[C@H]1c2n[nH]c(=O)c3cc(F)cc(c23)N[C@@H]1c1ccc(F)cc1 + Cn1nnc2c(C(N)=O)ncn2c1=O the viability, T/C was 7.7%. O=C(c1cc(Cc2n[nH]c(=O)c3ccccc23)ccc1F)N1CCN(C(=O)C2CC2)CC1 + Cn1nnc2c(C(N)=O)ncn2c1=O was tested, and the viability, T/C was 29.4%.

Same assay, conditions: second compound 100 µM; first compound 3 µM; active compounds read low; spheroids with HUVEC and MSC
In the case of CNCc1ccc(-c2cc(-c3nc(-c4ccc(S(=O)(=O)C(C)C)cc4)cnc3N)on2)cc1 + Cn1nnc2c(C(N)=O)ncn2c1=O, the viability, T/C is reported as 0.23%. With Cc1sc2c(c1C)C(c1ccc(Cl)cc1)=NC(CC(=O)Nc1ccc(O)cc1)c1nnc(C)n1-2 (stereo not given) + Cn1nnc2c(C(N)=O)ncn2c1=O the viability, T/C was 3%. In the case of Cn1ncnc1[C@H]1c2n[nH]c(=O)c3cc(F)cc(c23)N[C@@H]1c1ccc(F)cc1 + Cn1nnc2c(C(N)=O)ncn2c1=O, the viability, T/C is reported as 9.27%. O=C(c1cc(Cc2n[nH]c(=O)c3ccccc23)ccc1F)N1CCN(C(=O)C2CC2)CC1 + Cn1nnc2c(C(N)=O)ncn2c1=O gave a viability, T/C of 51.8%.

Same assay, conditions: second compound 100 µM; first compound 9.49 µM; active compounds read low; spheroids with HUVEC and MSC
O=C(c1cc(Cc2n[nH]c(=O)c3ccccc23)ccc1F)N1CCN(C(=O)C2CC2)CC1 + Cn1nnc2c(C(N)=O)ncn2c1=O was tested, and the viability, T/C was 7.29%.

Same assay, conditions: second compound 100 µM; first compound 30 µM; active compounds read low; spheroids with HUVEC and MSC
For O=C(c1cc(Cc2n[nH]c(=O)c3ccccc23)ccc1F)N1CCN(C(=O)C2CC2)CC1 + Cn1nnc2c(C(N)=O)ncn2c1=O, the viability, T/C was 7.19%.
